Consider 24 molecules from patent US4826814A, “Tripeptide derivatives” (Dainippon Pharmaceutical Co., Ltd., priority 1986, dated 1989).

Starred links: 1 amine or outer side, 2 acyl side, 3 side chain; linkers in the order of their positions; H or OH if unused. Non-standard residues stand in square brackets, D forms with d. Residues, ends and D or L forms follow the SMILES beside them. *: point of attachment. d(γGlu) = O=C(O)[C@@H](CCC(=O)[*:2])N[*:1]; Oic = O=C(O)[C@@H]1C[C@@H]2CCCC[C@@H]2N1; Orn = NCCC[C@H](N)C(=O)O; Cbz = O=C(OCc1ccccc1)*; Bz = O=C(c1ccccc1)*

What is called IC50 is the point on the concentration scale where inhibition reaches its midpoint.

The assay deals with T1, ACE preparation (rabbit lung) (Oryctolagus cuniculus, UniProt P12822).
T1 construct: an ACE preparation (rabbit lung); from tissue; host or cells: rabbit lung
T1 sequence (P12822 34-1310): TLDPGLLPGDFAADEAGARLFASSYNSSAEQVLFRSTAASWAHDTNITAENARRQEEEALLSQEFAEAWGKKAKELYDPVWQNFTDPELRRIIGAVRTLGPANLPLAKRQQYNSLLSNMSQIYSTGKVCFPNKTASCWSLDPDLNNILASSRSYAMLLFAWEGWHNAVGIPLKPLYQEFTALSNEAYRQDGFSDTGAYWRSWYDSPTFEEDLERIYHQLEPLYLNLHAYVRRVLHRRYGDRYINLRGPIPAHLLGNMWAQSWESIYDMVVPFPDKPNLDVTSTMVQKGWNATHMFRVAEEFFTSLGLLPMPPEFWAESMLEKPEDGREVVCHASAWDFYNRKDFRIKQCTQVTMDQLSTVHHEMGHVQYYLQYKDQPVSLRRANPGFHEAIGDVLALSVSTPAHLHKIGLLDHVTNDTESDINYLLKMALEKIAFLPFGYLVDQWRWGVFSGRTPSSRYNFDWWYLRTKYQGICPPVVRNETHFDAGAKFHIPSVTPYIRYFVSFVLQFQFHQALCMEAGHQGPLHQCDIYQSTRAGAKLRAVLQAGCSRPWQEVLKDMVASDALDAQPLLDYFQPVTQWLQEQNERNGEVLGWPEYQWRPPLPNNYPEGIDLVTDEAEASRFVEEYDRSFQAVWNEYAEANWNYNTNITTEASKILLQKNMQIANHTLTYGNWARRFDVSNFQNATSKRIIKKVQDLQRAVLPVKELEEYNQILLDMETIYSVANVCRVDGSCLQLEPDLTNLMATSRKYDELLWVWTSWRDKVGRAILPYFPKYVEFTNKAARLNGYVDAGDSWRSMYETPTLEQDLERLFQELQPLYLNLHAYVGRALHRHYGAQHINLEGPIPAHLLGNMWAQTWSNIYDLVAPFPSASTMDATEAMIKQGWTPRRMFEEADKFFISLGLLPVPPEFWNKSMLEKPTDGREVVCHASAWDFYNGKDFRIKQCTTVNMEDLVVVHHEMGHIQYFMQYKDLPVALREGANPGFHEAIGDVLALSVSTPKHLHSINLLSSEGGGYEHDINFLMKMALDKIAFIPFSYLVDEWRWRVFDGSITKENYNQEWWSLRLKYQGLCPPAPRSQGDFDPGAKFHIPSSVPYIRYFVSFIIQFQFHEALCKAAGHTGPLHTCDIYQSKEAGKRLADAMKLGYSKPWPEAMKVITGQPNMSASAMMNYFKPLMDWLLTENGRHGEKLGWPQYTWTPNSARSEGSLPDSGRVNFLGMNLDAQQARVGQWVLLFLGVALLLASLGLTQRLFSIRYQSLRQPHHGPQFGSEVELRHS
Kind of assay: In vitro ACE inhibitory activity (hippuryl-L-histidyl-L-leucine substrate). The assay is classed as biochemical. The following applies: 37° C., 30 minutes, pH 8.3. How it is done: The assay medium contained an ACE preparation (rabbit lung), synthetic substrate (hippuryl-L-histidyl-L-leucine 5 mM), NaCl (300 mM) and phosphate buffer (100 mM, pH 8.3). It was mixed to a final volume of 0.300 ml and incubated at 37° C. for 30 minutes in the presence or absence of test compounds. After the reaction was terminated by adding 300 μl of 1N HCl, hippuric acid formed was extracted with 2 volume of ethyl acetate. After ethyl acetate was evaporated and distilled water was added, the hippuric acid was determined from its absorbance at 228 nm by spectrophotometer (Hitachi 100-41).
The degree of ACE inhibition was calculated from activities with and without test compounds. The IC50 value (molar concentration required for the 50% inhibition of ACE activity) was obtained from a dose-inhibition curve.
As for `NCCCC[C@H](NC(=O)OCc1ccccc1)C(=O)N[C@H](CCC(=O)N1c2ccccc2C[C@H]1C(=O)O)C(=O)O` [Example 1, 1-(N^2 -Benzyloxycarbonyl-L-lysyl-gamma-D-glutamyl)indoline-2(S)-carboxylic acid], the 50% inhibitory concentration (IC50) was determined as 5.6 nM.

On to `NCCCC[C@H](NC(=O)OCCc1ccccc1)C(=O)N[C@H](CCC(=O)N1c2ccccc2C[C@H]1C(=O)O)C(=O)O` [Example 3, 1-(N^2 -Phenethyloxycarbonyl-L-lysyl-gamma-D-glutamyl)indoline-2(S)-carboxylic acid], for which the midpoint of inhibition, the IC50, lay at 13 nM.

In the case of `NCCCC[C@H](NC(=O)OC1CCCCC1)C(=O)N[C@H](CCC(=O)N1c2ccccc2C[C@H]1C(=O)O)C(=O)O` [Example 4, 1-(N^2 -Cyclohexyloxycarbonyl-L-lysyl-gamma-D-glutamyl)indoline-2(S)-carboxylic acid], the IC50 is 8.4 nM.

As to `NCCCC[C@H](NC(=O)c1ccco1)C(=O)N[C@H](CCC(=O)N1c2ccccc2C[C@H]1C(=O)O)C(=O)O` [Example 8, 1-[N^2-(2-Furoyl)-L-lysyl-gamma-D-glutamyl]indoline-2(S)-carboxylic acid], the concentration for half-maximal inhibition (IC50) came to 23 nM. Against the preceding molecule, the IC50 is about 2.7-fold higher.

In turn, `NCCCC[C@H](NC(=O)[C@@H]1CCCN1)C(=O)N[C@H](CCC(=O)N1c2ccccc2C[C@H]1C(=O)O)C(=O)O` [Example 9, 1-(L-prolyl-L-lysyl-gamma-D-glutamyl)indoline-2(S)-carboxylic acid] displayed a 50% inhibitory concentration (IC50) of 36 nM.

Consider `NCCCC[C@H](NC(=O)C=Cc1c[nH]cn1)C(=O)N[C@H](CCC(=O)N1c2ccccc2C[C@H]1C(=O)O)C(=O)O` [Example 10, 1-{N^2-[3-(4-Imidazolyl)-propenoyl]-L-lysyl-gamma-D-glutamyl}indoline-2(S)-carboxylic acid], for which the IC50 was 95 nM.

As to `NCCC[C@H](NC(=O)OCc1ccccc1)C(=O)N[C@H](CCC(=O)N1[C@H](C(=O)O)C[C@@H]2CCCC[C@@H]21)C(=O)O` [Example 14, (2S,3aS,7aS)-1-(N^2 -Benzyloxycarbonyl-L-ornithinyl-gamma-D-glutamyl)octahydro-1H-indole-2-carboxylic acid] (Cbz-[Orn]-[d(γGlu)]-[Oic]-OH), the half-inhibitory concentration (IC50) was found to be 4.9 nM.

On to `NCCCC[C@H](NC(=O)OCC1CCCCC1)C(=O)N[C@H](CCC(=O)N1c2ccccc2C[C@H]1C(=O)O)C(=O)O` [Example 16, 1-(N^2 -Cyclohexylmethoxycarbonyl-L-lysyl-gamma-D-glutamyl)indoline-2(S)-carboxylic acid], for which the IC50 was determined as 13 nM.

As to `NCCCC[C@H](NC(=O)[C@H]1CCCN1)C(=O)N[C@H](CCC(=O)N1c2ccccc2C[C@H]1C(=O)O)C(=O)O` [Example 17, 1-(D-Prolyl-L-lysyl-gamma-D-glutamyl)indoline-2(S)-carboxylic acid], the IC50 turned out to be 21 nM. Against the preceding molecule, the IC50 is about 1.6-fold higher.

`NCCCC[C@H](NC(=O)c1ccccn1)C(=O)N[C@H](CCC(=O)N1[C@H](C(=O)O)C[C@@H]2CCCC[C@@H]21)C(=O)O` [Example 20, (2S,3aS,7aS)-1-[N^2-(Pyridine-2-carbonyl)-L-lysyl-gamma-D-glutamyl]octahydro-1H-indole-2-carboxylic acid]: the IC50 came to 6.8 nM. This IC50 lies about 3.1-fold lower than the previous one.

In the case of `NCCCC[C@H](NC(=O)OCCc1ccccc1)C(=O)N[C@H](CCC(=O)N1[C@H](C(=O)O)C[C@@H]2CCCC[C@@H]21)C(=O)O` [Example 26, (2S,3aS,7aS)-1-[N^2 -Phenethyloxycarbonyl-L-lysyl-gamma-D-glutamyl]octahydro-1H-indole-2-carboxylic acid], the IC50 was 4.6 nM.

Molecule `NCCCC[C@H](NC(=O)c1ccccc1)C(=O)N[C@H](CCC(=O)N1[C@H](C(=O)O)C[C@@H]2CCCC[C@@H]21)C(=O)O` [Example 27, (2S,3aS,7aS)-1-(N^2 -Benzoyl-L-lysyl-gamma-D-glutamyl)octahydro-1H-indole-2-carboxylic acid] (Bz-Lys-[d(γGlu)]-[Oic]-OH) came in with an IC50 of 5.4 nM.

For `COc1ccc(CCOC(=O)N[C@@H](CCCCN)C(=O)N[C@H](CCC(=O)N2c3ccccc3C[C@H]2C(=O)O)C(=O)O)cc1` [Example 28, 1-[N^2-(4-Methoxyphenylethoxycarbonyl)-L-lysyl-gamma-D-glutamyl]indoline-2(S)-carboxylic acid], the half-maximal inhibitory concentration (IC50) is 11 nM. Against the preceding molecule, the IC50 is about 2-fold higher.

With `NCCCC[C@H](NC(=O)OC1CCCCC1)C(=O)N[C@H](CCC(=O)N1[C@H](C(=O)O)C[C@@H]2CCCC[C@@H]21)C(=O)O` [Example 31, (2S,3aS,7aS)-1-(N^2 -Cyclohexyloxycarbonyl-L-lysyl-gamma-D-glutamyl)octahydro-1H-indole-2-carboxylic acid], the IC50 was 5 nM.

Consider `NCCCC[C@H](NC(=O)OC1CCC1)C(=O)N[C@H](CCC(=O)N1[C@H](C(=O)O)C[C@@H]2CCCC[C@@H]21)C(=O)O` [Example 32, (2S,3aS,7aS)-1-[N^2-(Cyclobutyloxycarbonyl)-L-lysyl-gamma-D-glutamyl]octahydro-1H-indole-2-carboxylic acid], for which the IC50 worked out at 4.6 nM.

Regarding `NCCCC[C@H](NC(=O)OC1CCC1)C(=O)N[C@H](CCC(=O)N1c2ccccc2C[C@H]1C(=O)O)C(=O)O` [Example 33, 1-(N^2 -Cyclobutyloxycarbonyl-L-lysyl-gamma-D-glutamyl)indoline-2(S)-carboxylic acid], the IC50 was 14 nM.

Molecule `NCCCC[C@H](NC(=O)OCCC1CCCCC1)C(=O)N[C@H](CCC(=O)N1c2ccccc2C[C@H]1C(=O)O)C(=O)O` [Example 34, 1-(N^2 -Cyclohexylethoxycarbonyl-L-lysyl-gamma-D-glutamyl)indoline-2(S)-carboxylic acid] yielded a half-maximal inhibitory concentration (IC50) of 8 nM.

`NCCCC[C@H](NC(=O)c1cccnc1)C(=O)N[C@H](CCC(=O)N1c2ccccc2C[C@H]1C(=O)O)C(=O)O` [Example 35, 1-(N^2 -Nicotinoyl-L-lysyl-gamma-D-glutamyl)indoline-2(S)-carboxylic acid] gave an IC50 of 11 nM. This IC50 and that of the molecule before are within 1.5-fold of each other.

`NCCCC[C@H](NC(=O)C1CCC1)C(=O)N[C@H](CCC(=O)N1c2ccccc2C[C@H]1C(=O)O)C(=O)O` [Example 36, 1-(N^2 -Cyclobutanecarbonyl-L-lysyl-gamma-D-glutamyl)-indoline-2(S)-carboxylic acid] showed an IC50 of 22 nM.

In turn, `NCCCC[C@H](NC(=O)OC1CCCC1)C(=O)N[C@H](CCC(=O)N1c2ccccc2C[C@H]1C(=O)O)C(=O)O` [Example 37, 1-(N^2 -Cyclopentyloxycarbonyl-L-lysyl-gamma-D-glutamyl)indoline-2(S)-carboxylic acid] came in with a half-maximal inhibitory concentration (IC50) of 5.1 nM.

For the molecule `NCCCC[C@H](NC(=O)c1ccccc1)C(=O)N[C@H](CCC(=O)N1c2ccccc2C[C@H]1C(=O)O)C(=O)O` [Example 39, 1-(N^2 -Benzoyl-L-lysyl-gamma-D-glutamyl)indoline-2(S)-carboxylic acid], it took 11 nM to reach half-maximal inhibition (IC50). Compared with the last molecule, the IC50 is about 2.2-fold higher.

With `NCCCC[C@H](NC(=O)c1cccs1)C(=O)N[C@H](CCC(=O)N1[C@H](C(=O)O)C[C@@H]2CCCC[C@@H]21)C(=O)O` [Example 52, (2S,3aS,7aS)-1-[N^2-(2-Thiophenecarbonyl)-L-lysyl-gamma-D-glutamyl]octahydro-1H-indole-2-carboxylic acid], the half-maximal inhibitory concentration (IC50) worked out at 4.5 nM. This IC50 is about 2.4-fold lower than that of the molecule before.

In turn, `NCCCC[C@H](NC(=O)c1cnc2ccccc2c1)C(=O)N[C@H](CCC(=O)N1[C@H](C(=O)O)C[C@@H]2CCCC[C@@H]21)C(=O)O` [Example 53, (2S,3aS,7aS)-1-[N^2-(3-Quinolinecarbonyl)-L-lysyl-gamma-D-glutamyl]octahydro-1H-indole-2-carboxylic acid] displayed a 50% inhibitory concentration (IC50) of 4.6 nM.

Molecule `NCCCC[C@H](NC(=O)c1cccnc1Cl)C(=O)N[C@H](CCC(=O)N1[C@H](C(=O)O)C[C@@H]2CCCC[C@@H]21)C(=O)O` [Example 54, (2S,3aS,7aS)-1-[N^2-(2-Chloronicotinoyl)-L-lysyl-gamma-D-glutamyl]octahydro-1H-indole-2-carboxylic acid] gave an IC50 of 5.9 nM.
